Here are results for 17 molecules from ChEMBL document CHEMBL5325449, “Influence of N-arylsulfonamido d-valine N-substituents on the selectivity and potency of matrix metalloproteinase inhibitors” (Bioorg Med Chem, 2023).

Assay [1] concerns the target 72 kDa type IV collagenase (Homo sapiens, UniProt P08253). The experiment in a line: Inhibition of human recombinant MMP-2 (34 to 660 residues) expressed in CHO cells using (7-methoxycoumarin-4-y1)-acetyl-Pro-Leu-Gly-Leu-[3-(2,4-dinitropheny1)-L-2,3-diaminopropionyl]-Ala-Arg-NH2 as substrate preincubated with enzyme for 30 mins followed by substrate addition and measured after 10 mins by fluorescence based analysis. The format is cell-based.

In the next assay the target is Collagenase 3 (Homo sapiens, UniProt P45452). Kind of assay: Inhibition of human recombinant MMP-13 (20 to 471 residues) expressed in NS0 cells using (7-methoxycoumarin-4-y1)-acetyl-Pro-Leu-Gly-Leu-[3-(2,4-dinitropheny1)-L-2,3-diaminopropionyl]-Ala-Arg-NH2 as substrate preincubated with enzyme for 30 mins followed by substrate addition and measured after 10 mins by fluorescence based analysis.

A further assay addresses Neutrophil collagenase (Homo sapiens, UniProt P22894). The experiment in a line: Inhibition of human recombinant MMP-8 (21 to 467 residues) expressed in NS0 cells using (7-methoxycoumarin-4-y1)-acetyl-Pro-Leu-Gly-Leu-[3-(2,4-dinitropheny1)-L-2,3-diaminopropionyl]-Ala-Arg-NH2 as substrate preincubated with enzyme for 30 mins followed by substrate addition and measured after 10 mins by fluorescence based analysis. The format is cell-based.

Assay [2] deals with Macrophage metalloelastase (Homo sapiens, UniProt P39900, V97L). The experiment in a line: Inhibition of human recombinant MMP-12 (17 to 470 residues) Val97Leu mutant expressed in NS0 cells using (7-methoxycoumarin-4-y1)-acetyl-Pro-Leu-Gly-Leu-[3-(2,4-dinitropheny1)-L-2,3-diaminopropionyl]-Ala-Arg-NH2 as substrate preincubated with enzyme for 30 mins followed by substrate addition and measured after 10 mins by fluorescence based analysis. The format is cell-based.
Chain of Macrophage metalloelastase (P39900 whole entry V97L, the tested form may be a part): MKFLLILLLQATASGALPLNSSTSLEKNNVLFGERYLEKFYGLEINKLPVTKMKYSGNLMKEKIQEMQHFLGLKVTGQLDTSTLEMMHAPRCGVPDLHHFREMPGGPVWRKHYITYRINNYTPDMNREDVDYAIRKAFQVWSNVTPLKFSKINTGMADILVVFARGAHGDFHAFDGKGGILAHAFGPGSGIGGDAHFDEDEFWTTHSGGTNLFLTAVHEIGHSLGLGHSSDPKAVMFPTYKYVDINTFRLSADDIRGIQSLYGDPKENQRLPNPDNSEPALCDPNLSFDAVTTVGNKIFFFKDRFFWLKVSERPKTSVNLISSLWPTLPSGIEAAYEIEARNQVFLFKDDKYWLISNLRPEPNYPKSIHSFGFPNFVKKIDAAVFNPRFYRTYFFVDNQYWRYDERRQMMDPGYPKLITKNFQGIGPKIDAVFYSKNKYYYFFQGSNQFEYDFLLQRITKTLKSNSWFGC

The target in assay [3] is Matrix metalloproteinase-9 (Homo sapiens, UniProt P14780, Q279R). Kind of assay: Inhibition of human recombinant MMP-9 (20 to 707 residues) Gln279Arg mutant expressed in CHO cells using (7-methoxycoumarin-4-y1)-acetyl-Pro-Leu-Gly-Leu-[3-(2,4-dinitropheny1)-L-2,3-diaminopropionyl]-Ala-Arg-NH2 as substrate preincubated with enzyme for 30 mins followed by substrate addition and measured after 10 mins by fluorescence based analysis. The format is cell-based.
Chain of Matrix metalloproteinase-9 (P14780 107-707 Q279R limits assumed): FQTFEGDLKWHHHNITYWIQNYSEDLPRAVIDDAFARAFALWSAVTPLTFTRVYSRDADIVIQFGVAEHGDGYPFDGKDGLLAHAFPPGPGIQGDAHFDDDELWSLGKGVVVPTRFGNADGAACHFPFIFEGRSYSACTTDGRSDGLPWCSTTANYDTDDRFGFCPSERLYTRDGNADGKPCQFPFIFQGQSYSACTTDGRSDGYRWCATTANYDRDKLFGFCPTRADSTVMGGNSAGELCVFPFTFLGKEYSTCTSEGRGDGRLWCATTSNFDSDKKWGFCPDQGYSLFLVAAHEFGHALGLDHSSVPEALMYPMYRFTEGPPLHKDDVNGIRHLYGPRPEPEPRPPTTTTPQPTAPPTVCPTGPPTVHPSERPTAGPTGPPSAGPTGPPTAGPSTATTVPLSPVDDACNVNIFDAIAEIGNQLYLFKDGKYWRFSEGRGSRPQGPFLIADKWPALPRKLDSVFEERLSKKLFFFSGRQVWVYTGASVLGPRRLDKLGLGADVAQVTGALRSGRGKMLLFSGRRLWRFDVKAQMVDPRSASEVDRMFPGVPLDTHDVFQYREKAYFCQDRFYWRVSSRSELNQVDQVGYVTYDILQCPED

pIC50: −log10 of the molar value.

Chain of 72 kDa type IV collagenase (P08253 whole entry, the tested form may be a part): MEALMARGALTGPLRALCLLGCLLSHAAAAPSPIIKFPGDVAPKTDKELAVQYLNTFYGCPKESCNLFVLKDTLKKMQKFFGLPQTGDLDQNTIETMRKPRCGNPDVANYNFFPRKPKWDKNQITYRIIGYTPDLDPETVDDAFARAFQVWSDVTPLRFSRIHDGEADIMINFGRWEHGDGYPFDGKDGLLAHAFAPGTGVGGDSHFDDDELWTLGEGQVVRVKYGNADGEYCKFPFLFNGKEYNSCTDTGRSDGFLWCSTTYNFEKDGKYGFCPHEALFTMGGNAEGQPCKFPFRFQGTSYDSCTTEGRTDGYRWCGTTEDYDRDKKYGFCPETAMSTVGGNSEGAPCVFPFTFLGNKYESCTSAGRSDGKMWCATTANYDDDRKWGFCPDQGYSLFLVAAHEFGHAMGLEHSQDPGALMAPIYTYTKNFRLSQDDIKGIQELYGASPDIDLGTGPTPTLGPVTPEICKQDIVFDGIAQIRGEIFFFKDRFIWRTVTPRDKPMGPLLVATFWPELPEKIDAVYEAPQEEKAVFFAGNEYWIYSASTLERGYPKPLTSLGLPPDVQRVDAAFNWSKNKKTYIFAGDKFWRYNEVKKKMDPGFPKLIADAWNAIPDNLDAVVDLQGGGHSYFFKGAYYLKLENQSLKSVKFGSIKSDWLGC
Chain of Neutrophil collagenase (P22894 whole entry, the tested form may be a part): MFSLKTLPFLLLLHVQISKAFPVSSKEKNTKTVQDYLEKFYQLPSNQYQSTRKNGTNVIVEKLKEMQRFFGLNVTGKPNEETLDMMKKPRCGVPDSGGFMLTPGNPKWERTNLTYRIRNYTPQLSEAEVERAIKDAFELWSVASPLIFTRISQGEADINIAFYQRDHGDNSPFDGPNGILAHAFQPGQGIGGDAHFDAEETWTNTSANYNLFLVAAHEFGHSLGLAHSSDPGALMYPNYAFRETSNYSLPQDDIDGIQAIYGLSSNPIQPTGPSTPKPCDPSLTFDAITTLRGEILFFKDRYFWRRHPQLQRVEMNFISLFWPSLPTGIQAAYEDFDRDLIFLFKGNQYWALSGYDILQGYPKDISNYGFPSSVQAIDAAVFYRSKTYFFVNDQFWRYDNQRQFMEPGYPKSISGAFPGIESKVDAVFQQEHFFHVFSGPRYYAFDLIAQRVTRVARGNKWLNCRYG

On to `CCCCCCN([C@@H](C(=O)O)C(C)C)S(=O)(=O)c1ccc(-c2nc(-c3ccc(C)s3)no2)cc1`, for which the pIC50 in assay [1] is 7.10; at Collagenase 3, 6.48; on Neutrophil collagenase it was under 5.00; in assay [2], 6.28; in assay [3], 6.48.

With `Cc1ccc(-c2noc(-c3ccc(S(=O)(=O)N(CCCCF)[C@@H](C(=O)O)C(C)C)cc3)n2)s1`, the pIC50 in assay [1] is 8.52; at Collagenase 3 it was 7.02; on Neutrophil collagenase, 7.00; in assay [2], 7.39; in assay [3], 7.60.

As to `Cc1ccc(-c2noc(-c3ccc(S(=O)(=O)N(Cc4ccccc4)[C@@H](C(=O)O)C(C)C)cc3)n2)s1`, the pIC50 in assay [1] was 8.30; at Collagenase 3 it was 6.01; on Neutrophil collagenase, 6.24; in assay [2] it was 6.95; in assay [3], 7.02.

As to `Cc1ccc(-c2noc(-c3ccc(S(=O)(=O)N(CCOCOCCCOCCN=[N+]=[N-])[C@@H](C(=O)O)C(C)C)cc3)n2)s1`, the pIC50 in assay [1] is 8.10; on Collagenase 3, 7.03; on Neutrophil collagenase, 7.08; in assay [2], 6.74; in assay [3] it was 7.44.

`Cc1ccc(-c2noc(-c3ccc(S(=O)(=O)N(CCCC(F)(F)F)[C@@H](C(=O)O)C(C)C)cc3)n2)s1`: the pIC50 in assay [1] is 7.55; on Collagenase 3 it was 6.41; on Neutrophil collagenase, 6.43; in assay [2] it was 6.79; in assay [3] it was 6.81.

`CC(C)[C@@H](NS(=O)(=O)c1ccc(-c2nc(-c3ccc(Cn4cc(CCCCCF)nn4)s3)no2)cc1)C(=O)O`: the pIC50 in assay [1] is 7.66; at Collagenase 3, 7.44; on Neutrophil collagenase, 7.05; in assay [2], 7.54; in assay [3], 6.00.

On to `CCCCN([C@@H](C(=O)O)C(C)C)S(=O)(=O)c1ccc(-c2nc(-c3ccc(C)s3)no2)cc1`, for which the pIC50 in assay [1] is 8.00; on Collagenase 3 it was 6.67; on Neutrophil collagenase, 6.26; in assay [2] it was 6.98; in assay [3] it was 7.06.

For the molecule `CC(C)[C@@H](NS(=O)(=O)c1ccc(-c2nc(-c3ccc(Cn4cc(CCCF)nn4)s3)no2)cc1)C(=O)O`, the negative-log IC50 (pIC50) was 7.80 in assay [1]; 7.92 on Collagenase 3; 7.66 on Neutrophil collagenase; 7.89 in assay [2]; 6.99 in assay [3].

Regarding `CCCCCN([C@@H](C(=O)O)C(C)C)S(=O)(=O)c1ccc(-c2nc(-c3ccc(C)s3)no2)cc1`, the pIC50 was 7.49 in assay [1]; 6.98 at Collagenase 3; 6.33 at Neutrophil collagenase; 6.79 in assay [2]; 7.06 in assay [3].

As for `Cc1ccc(-c2noc(-c3ccc(S(=O)(=O)N(C)[C@@H](C(=O)O)C(C)C)cc3)n2)s1`, the pIC50 in assay [1] was 8.30; on Collagenase 3 it was 6.43; on Neutrophil collagenase it was 7.89; in assay [2], 7.43; in assay [3], 7.44.

In the case of `Cc1ccc(-c2noc(-c3ccc(S(=O)(=O)N(CCF)[C@@H](C(=O)O)C(C)C)cc3)n2)s1`, the pIC50 in assay [1] is 9.23; on Collagenase 3, 6.34; on Neutrophil collagenase, 7.05; in assay [2], 7.44; in assay [3] it was 7.47.

In the case of `Cc1ccc(-c2noc(-c3ccc(S(=O)(=O)N[C@@H](C(=O)O)C(C)C)cc3)n2)s1`, the pIC50 in assay [1] was 8.40; at Collagenase 3, 7.24; at Neutrophil collagenase, 7.59; in assay [2] it was 7.85; in assay [3] it was 7.89.

Take `CCCN([C@@H](C(=O)O)C(C)C)S(=O)(=O)c1ccc(-c2nc(-c3ccc(C)s3)no2)cc1`: the pIC50 in assay [1] was 8.30; on Collagenase 3 it was 6.46; at Neutrophil collagenase, 6.72; in assay [2], 7.59; in assay [3] it was 7.04.

With `CCN([C@@H](C(=O)O)C(C)C)S(=O)(=O)c1ccc(-c2nc(-c3ccc(C)s3)no2)cc1`, the pIC50 was 9.15 in assay [1]; 6.60 at Collagenase 3; 6.83 at Neutrophil collagenase; 7.24 in assay [2]; 7.48 in assay [3].

With `Cc1ccc(-c2noc(-c3ccc(S(=O)(=O)N(CCCCCCCCCCCCN=[N+]=[N-])[C@@H](C(=O)O)C(C)C)cc3)n2)s1`, the pIC50 is 7.24 in assay [1]; 5.70 on Collagenase 3; 6.03 at Neutrophil collagenase; 5.40 in assay [2]; 6.03 in assay [3].

On to `CCCCCCCCCCCCCCCCN([C@@H](C(=O)O)C(C)C)S(=O)(=O)c1ccc(-c2nc(-c3ccc(C)s3)no2)cc1`, for which the negative logarithm of the IC50 (pIC50) (in assay [1]; at Collagenase 3; at Neutrophil collagenase; in assay [2]; in assay [3]) was under 5.00 in each case.

`CCCCCCCCN([C@@H](C(=O)O)C(C)C)S(=O)(=O)c1ccc(-c2nc(-c3ccc(C)s3)no2)cc1`: the pIC50 in assay [1] is 6.00; on Collagenase 3 it was under 5.00; in assay [2], 5.44; in assay [3] it was 5.40.

By pIC50 is commonly meant −log10 of the IC50, conventionally taken in molar units.
